# According to ChEMBL document CHEMBL1150794, “Vibrio splendidus as the source of plasmid-mediated QnrS-like quinolone resistance determinants” (2007):
# Assays:
# Format in all cases: functional
# Escherichia coli [1] = assay: Antimicrobial activity against Escherichia coli TOP10
# Vibrio splendidus [2] = assay: Antimicrobial activity against Vibrio splendidus 12B01 expressing plasmid-mediated QnrS-like quinolone resistance determinants
# Vibrio splendidus [3] = assay: Antimicrobial activity against Vibrio splendidus LGP32 expressing plasmid-mediated QnrS-like quinolone resistance determinants
# Escherichia coli [4] = assay: Antimicrobial activity against Escherichia coli TOP10 harbouring pVS2 expressing quinolone resistant Vibrio splendidus LGP32 QnrVS2 gene
# Escherichia coli [5] = assay: Antimicrobial activity against Escherichia coli TOP10 harbouring pS1 plasmid expressing quinolone resistant QnrS1 gene
# Escherichia coli [6] = assay: Antimicrobial activity against Escherichia coli TOP10 harbouring pS2 plasmid expressing quinolone resistant QnrS2 gene
# Escherichia coli [7] = assay: Antimicrobial activity against Escherichia coli TOP10 harbouring pVS1 expressing quinolone resistant Vibrio splendidus 12B01 QnrVS1 gene
# Escherichia coli [8] = assay: Antimicrobial activity against Escherichia coli TOP10 harbouring p0 plasmid expressing pCR-BluntII-TOPO
Compound,MIC (Escherichia coli [1]),MIC (Vibrio splendidus [2]),MIC (Vibrio splendidus [3]),MIC (Escherichia coli [4]),MIC (Escherichia coli [5]),MIC (Escherichia coli [6]),MIC (Escherichia coli [7]),MIC (Escherichia coli [8])
O=C(O)c1cn(C2CC2)c2cc(N3CCNCC3)c(F)cc2c1=O [CIPROFLOXACIN],< 0.01 µg/mL,0.25 µg/mL,0.25 µg/mL,,,,,
COc1c(N2C[C@@H]3CCCN[C@@H]3C2)c(F)cc2c(=O)c(C(=O)O)cn(C3CC3)c12 [MOXIFLOXACIN],< 0.01 µg/mL,0.25 µg/mL,0.25 µg/mL,0.12 µg/mL,0.25 µg/mL,0.25 µg/mL,0.12 µg/mL,
CCn1cc(C(=O)O)c(=O)c2ccc(C)nc21 [NALIDIXIC ACID],1 µg/mL,2 µg/mL,4 µg/mL,8 µg/mL,8 µg/mL,8 µg/mL,8 µg/mL,1 µg/mL
CCn1cc(C(=O)O)c(=O)c2cc(F)c(N3CCNCC3)cc21 [NORFLOXACIN],0.03 µg/mL,0.25 µg/mL,0.5 µg/mL,0.5 µg/mL,1 µg/mL,1 µg/mL,0.5 µg/mL,0.03 µg/mL
CC1COc2c(N3CCN(C)CC3)c(F)cc3c(=O)c(C(=O)O)cn1c23 (configuration not stated) [OFLOXACIN],,0.25 µg/mL,0.5 µg/mL,0.25 µg/mL,,,0.25 µg/mL,
C[C@@H]1CN(c2c(F)c(N)c3c(=O)c(C(=O)O)cn(C4CC4)c3c2F)C[C@H](C)N1 [SPARFLOXACIN],< 0.01 µg/mL,0.25 µg/mL,0.5 µg/mL,0.12 µg/mL,0.25 µg/mL,0.25 µg/mL,0.12 µg/mL,
